Measurements published in the NIST ThermoML archive (doi:10.1016/j.jct.2010.11.017).
Numbers after ± are expanded uncertainties.

Tests used:
[1] = mn = molality of the nth substance listed, in mol/kg; details: 101 kPa, Liquid, m2 = 0; for viscosity: Capillary tube (Ostwald / Ubbelohde) method; for speed of sound: Frequency=3 MHz, Linear variable-path acoustic interferometer
[2] = wn = mass fraction of the nth substance listed; details: 101 kPa, Liquid, w2 = 0; for viscosity: Capillary tube (Ostwald / Ubbelohde) method; for speed of sound: Frequency=3 MHz, Linear variable-path acoustic interferometer

O [water] + N[C@@H](Cc1c[nH]cn1)C(=O)O
viscosity ([1]; 293.15 K): 1.002 ± 0.1 mPa·s | speed of sound ([1]; 293.15 K): 1483.6 ± 10 m/s | viscosity ([1]; 298.15 K): 0.8903 ± 0.089 mPa·s | viscosity ([1]; 303.15 K): 0.7973 ± 0.08 mPa·s | speed of sound ([1]; 303.15 K): 1508.4 ± 10 m/s | viscosity ([1]; 308.15 K): 0.719 ± 0.072 mPa·s | mass density ([1]; 308.15 K, Pycnometric method): 994.07 ± 6 kg/m3 | viscosity ([1]; 313.15 K): 0.6526 ± 0.065 mPa·s | speed of sound ([1]; 313.15 K): 1526.8 ± 10 m/s | viscosity ([1]; 318.15 K): 0.5972 ± 0.06 mPa·s | speed of sound ([1]; 318.15 K): 1533 ± 10 m/s

O [water] + O=C[C@H](O)[C@@H](O)[C@H](O)[C@H](O)CO
viscosity ([2]; 293.15 K): 1.002 ± 0.1 mPa·s | speed of sound ([2]; 293.15 K): 1483.6 ± 10 m/s | viscosity ([2]; 298.15 K): 0.8903 ± 0.089 mPa·s | viscosity ([2]; 303.15 K): 0.7973 ± 0.08 mPa·s | speed of sound ([2]; 303.15 K): 1508.4 ± 10 m/s | viscosity ([2]; 308.15 K): 0.719 ± 0.072 mPa·s | mass density ([2]; 308.15 K, Pycnometric method): 994.07 ± 6 kg/m3 | viscosity ([2]; 313.15 K): 0.6526 ± 0.065 mPa·s | speed of sound ([2]; 313.15 K): 1526.8 ± 10 m/s | viscosity ([2]; 318.15 K): 0.5972 ± 0.06 mPa·s | speed of sound ([2]; 318.15 K): 1533 ± 10 m/s
